Values of other authors in patent US20130252988A1, “COMPOSITIONS AND METHODS FOR TREATING MYELOFIBROSIS” (TARGEGEN, INC., priority 2010, published 2013).

Conditions: Kantarjian H M et al., Blood 110:3540-3546, 2007; cited from earlier work

## Cc1cn(-c2cc(NC(=O)c3ccc(C)c(Nc4nccc(-c5cccnc5)n4)c3)cc(C(F)(F)F)c2)cn1 [nilotinib]
  Asymptomatic hyperamylasemia, sometimes with hyperlipasemia, as toxicity: observed
